Test results reported in US8431702B2, “Therapeutically useful substituted hydropyrido [3,2,1-ij] quinoline compounds” (Allergan, Inc., priority 2008, dated 2013).
Read-outs that look alike come from different tables or passages of the source.

Target: T1, human S1P3 receptor (Homo sapiens, UniProt Q99500)
T1 construct: expressed in transfected cells
Assay: FLIPR calcium (Fluo-4) assay for activation or block of activation of human S1P3 receptor in T24 cells
Type: cell-based
Method: The compounds of the invention are assessed for their ability to activate or block activation of the human S1P3 receptor in T24 cells stably expressing the human S1P3 receptor using the method described in paragraph [0067] of United States Patent Application Publication No. 20070232682, which published on Oct. 4, 2007, which is hereby incorporated by reference in its entirety.
Ten thousands cells/well are plated into 384-well poly-D-lysine coated plates one day prior to use. The growth media for the S1P3 receptor expressing cell line is McCoy's 5A medium supplemented with 10% charcoal-treated fetal bovine serum (FBS), 1% antibiotic-antimycotic and 400 μg/ml geneticin. On the day of the experiment, the cells are washed twice with Hank's Balanced Salt Solution supplemented with 20 mM HEPES (HBSS/Hepes buffer). The cells are then dye loaded with 2 μM Fluo-4 diluted in the HBSS/Hepes buffer with 1.25 mM Probenecid and incubated at 37° C. for 40 minutes. Extracellular dye is removed by washing the cell plates four times prior to placing the plates in the FLIPR (Fluorometric Imaging Plate Reader, Molecular Devices). Ligands are diluted in HBSS/Hepes buffer and prepared in 384-well microplates. The positive control, Sphingosine-1-phosphate (S1P), is diluted in HBSS/Hepes buffer with 4 mg/ml fatty acid free bovine serum albumin. The FLIPR transfers 12.5 μl from the ligand microplate to the cell plate and takes fluorescent measurements for 75 seconds, taking readings every second, and then for 2.5 minutes, taking readings every 10 seconds. Compounds are tested over the concentration range of 0.61 nM to 10,000 nM. Data for calcium ion (Ca^+2) responses are obtained in arbitrary fluorescence units and not translated into Ca^+2 concentrations. IC50 values (nM) are determined through a […] analysis using the Levenburg Marquardt algorithm.

[1] = T24 cells stably expressing the human S1P3 receptor, tested over 0.61 nM to 10,000 nM
[2] = T24 cells stably expressing the human S1P3 receptor, tested over 0.61 nM to 10,000 nM, read-out: S1P3 IC50

T1 sequence (Q99500 whole entry): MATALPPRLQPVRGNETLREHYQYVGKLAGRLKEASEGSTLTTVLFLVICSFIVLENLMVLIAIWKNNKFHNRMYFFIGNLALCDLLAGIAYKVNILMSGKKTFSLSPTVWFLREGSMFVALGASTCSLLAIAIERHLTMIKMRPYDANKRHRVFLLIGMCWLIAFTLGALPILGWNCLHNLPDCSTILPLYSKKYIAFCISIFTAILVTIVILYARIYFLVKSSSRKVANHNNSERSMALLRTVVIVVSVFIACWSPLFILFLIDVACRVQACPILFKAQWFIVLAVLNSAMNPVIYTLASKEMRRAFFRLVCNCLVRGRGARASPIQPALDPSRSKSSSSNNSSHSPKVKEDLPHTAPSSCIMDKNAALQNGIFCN

IC50 [2] [nM] | SMILES | IC50 [nM] | S1P3 % Inhibition [1] [%]
 | CSC(=O)Nc1cc2c3c(c1)[C@](C)(c1ccccc1)CCN3CC[C@@]2(C)c1ccccc1 [Compound 583, S-methyl (1S,7S)-1,7-dimethyl-1,7-diphenyl-1,2,3,5,6,7-hexahydropyrido[3,2,1-ij]quinolin-9-ylcarbamothioate] | 10 | 98
 | CCCSC(=O)Nc1cc2c3c(c1)[C@@](C)(c1ccccc1)CCN3CC[C@@]2(C)c1ccccc1 [Compound 584, S-propyl (1R,7S)-1,7-dimethyl-1,7-diphenyl-1,2,3,5,6,7-hexahydropyrido[3,2,1-ij]quinolin-9-ylcarbamothioate] | 16 | 98
 | CCCSC(=O)Nc1cc2c3c(c1)[C@](C)(c1ccccc1)CCN3CC[C@@]2(C)c1ccccc1 [Compound 585, S-propyl (1S,7S)-1,7-dimethyl-1,7-diphenyl-1,2,3,5,6,7-hexahydropyrido[3,2,1-ij]quinolin-9-ylcarbamothioate] | 5 | 98
 | CSC(=O)Nc1cc2c3c(c1)[C@](C)(c1ccc(F)cc1)CCN3CC[C@@]2(C)c1ccc(F)cc1 [Compound 671, S-methyl (1S,7S)-1,7-bis(4-fluorophenyl)-1,7-dimethyl-1,2,3,5,6,7-hexahydropyrido[3,2,1-ij]quinolin-9-ylcarbamothioate] | 25 | 97
 | CCCCOC(=O)Nc1cc2c3c(c1)[C@](C)(c1ccc(F)cc1)CCN3CC[C@@]2(C)c1ccc(F)cc1 [Compound 672, butyl (1S,7S)-1,7-bis(4-fluorophenyl)-1,7-dimethyl-1,2,3,5,6,7-hexahydropyrido[3,2,1-ij]quinolin-9-ylcarbamate] | 86 | 89
 | CCCSC(=O)Nc1cc2c3c(c1)[C@](C)(c1ccc(F)cc1)CCN3CC[C@@]2(C)c1ccc(F)cc1 [Compound 673, S-propyl (1S,7S)-1,7-bis(4-fluorophenyl)-1,7-dimethyl-1,2,3,5,6,7-hexahydropyrido[3,2,1-ij]quinolin-9-ylcarbamothioate] | 62 | 97
 | COC(=O)Nc1cc2c3c(c1)[C@](C)(c1ccc(F)cc1)CCN3CC[C@@]2(C)c1ccc(F)cc1 [Compound 674, methyl (1S,7S)-1,7-bis(4-fluorophenyl)-1,7-dimethyl-1,2,3,5,6,7-hexahydropyrido[3,2,1-ij]quinolin-9-ylcarbamate] | 46 | 96
4 | CSC(=O)Nc1cc2c3c(c1)C(c1ccccc1)CCN3CCC2c1ccccc1 (stereo not drawn) [Compound 699] |  | 100
7 | CCCSC(=O)Nc1cc2c3c(c1)C(c1ccccc1)CCN3CCC2c1ccccc1 (stereo not drawn) [Compound 700] |  | 100
 | O=C(NCCCl)Nc1cc2c3c(c1)C(c1ccccc1)CCN3CCC2c1ccccc1 (stereo not drawn) [Compound 769, 1-(2-chloroethyl)-3-(1,7-diphenyl-1,2,3,5,6,7-hexahydropyrido[3,2,1-ij]quinolin-9-yl)urea] |  | 100
 | C=CCNC(=O)Nc1cc2c3c(c1)C(c1ccccc1)CCN3CCC2c1ccccc1 (stereo not drawn) [Compound 773, 1-allyl-3-(1,7-diphenyl-1,2,3,5,6,7-hexahydropyrido[3,2,1-ij]quinolin-9-yl)urea] |  | 100
619 | CNC(=O)c1cc2c3c(c1)C(c1ccccc1)CCN3CCC2c1ccccc1 (stereo not drawn) [Compound 775, N-methyl-1,7-diphenyl-1,2,3,5,6,7-hexahydropyrido[3,2,1-ij]quinoline-9-carboxamide] |  | 100
 | COC(=O)Nc1cc2c3c(c1)C(c1cccc(F)c1)CCN3CCC2c1cccc(F)c1 (stereo not drawn) [Compound 779, Methyl 1,7-bis(3-fluorophenyl)-1,2,3,5,6,7-hexahydropyrido[3,2,1-ij]quinolin-9-ylcarbamate] |  | 101
 | COC(=O)Nc1cc2c3c(c1)[C@](C)(c1ccccc1)CCN3CC[C@@]2(C)c1ccccc1 [Compound 829, methyl (1S,7S)-1,7-dimethyl-1,7-diphenyl-1,2,3,5,6,7-hexahydropyrido[3,2,1-ij]quinolin-9-ylcarbamate] | 7 | 97
 | CCOC(=O)Nc1cc2c3c(c1)[C@](C)(c1ccccc1)CCN3CC[C@@]2(C)c1ccccc1 [Compound 941, Ethyl (1S,7S)-1,7-dimethyl-1,7-diphenyl-1,2,3,5,6,7-hexahydropyrido[3,2,1-ij]quinolin-9-ylcarbamate] | 13 | 100
 | CCCOC(=O)Nc1cc2c3c(c1)[C@](C)(c1ccccc1)CCN3CC[C@@]2(C)c1ccccc1 [Compound 942, Propyl (1S,7S)-1,7-dimethyl-1,7-diphenyl-1,2,3,5,6,7-hexahydropyrido[3,2,1-ij]quinolin-9-ylcarbamate] | 72 | 100
 | CCCCOC(=O)Nc1cc2c3c(c1)[C@](C)(c1ccccc1)CCN3CC[C@@]2(C)c1ccccc1 [Compound 943, Butyl (1S,7S)-1,7-dimethyl-1,7-diphenyl-1,2,3,5,6,7-hexahydropyrido[3,2,1-ij]quinolin-9-ylcarbamate] | 75 | 100
 | C[C@@]1(c2ccccc2)CCN2CC[C@@](C)(c3ccccc3)c3cc(NC(=O)OCCF)cc1c32 [Compound 944, 2-fluoroethyl (1S,7S)-1,7-dimethyl-1,7-diphenyl-1,2,3,5,6,7-hexahydropyrido[3,2,1-ij]quinolin-9-ylcarbamate] | 27 | 100
 | C[C@@]1(c2ccccc2)CCN2CC[C@@](C)(c3ccccc3)c3cc(NC(=O)OCCCCl)cc1c32 [Compound 945, 3-chloropropyl (1S,7S)-1,7-dimethyl-1,7-diphenyl-1,2,3,5,6,7-hexahydropyrido[3,2,1-ij]quinolin-9-ylcarbamate] | 68 | 100
 | O=C(Nc1cc2c3c(c1)C(c1ccccc1)CCN3CCC2c1ccccc1)N1CCOCC1 (stereo not drawn) [Compound 983, N-(1,7-diphenyl-1,2,3,5,6,7-hexahydropyrido[3,2,1-ij]quinolin-9-yl)morpholine-4-carboxamide] |  | 100
